Test results published in patent US20210045385A1, “PYRIDAZINONE-SUBSTITUTED KETOXIMES AS HERBICIDES” (FMC Corporation, priority 2018, published 2021).

Key:
Format in all cases: in vivo
[1] = tested on: Italian ryegrass (Lolium multiflorum); assay: Test A preemergence, visual plant response rating; details: for Ryegrass, Italian plant response rating: 125 g ai/ha, preemergence, 0 to 100 scale, 0 no effect, 100 complete control; for Ryegrass, Italian plant response rating (0 to 100 scale): 500 g ai/ha Preemergence, approx. 10 days
Method in brief: (§1)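 Preemergence: seeds in loam/sand blend given directed soil spray of compound in non-phytotoxic solvent with surfactant. Postemergence: plants 2–10 cm, one- to two-leaf stage, sprayed with same formulation. Visual injury rated vs untreated controls after ~10 days in greenhouse, 0 (no effect) to 100 (complete control).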

[2] = tested on: barnyardgrass (Echinochloa crus-galli); assay: Test A preemergence, visual plant response rating; details: for Barnyardgrass plant response rating: 125 g ai/ha, preemergence, 0 to 100 scale, 0 no effect, 100 complete control; for Barnyardgrass plant response rating (0 to 100 scale): 500 g ai/ha Preemergence, approx. 10 days
Method in brief: as §1

[3] = tested on: foxtail, giant (giant foxtail, Setaria faberii); assay: Test A preemergence, visual plant response rating; details: for Foxtail, Giant plant response rating: 125 g ai/ha, preemergence, 0 to 100 scale, 0 no effect, 100 complete control; for Foxtail, Giant plant response rating (0 to 100 scale): 500 g ai/ha Preemergence, approx. 10 days
Method in brief: as §1

kochia (Kochia scoparia) [4] = assay: Test A preemergence, visual plant response rating; details: for Kochia plant response rating: 125 g ai/ha, preemergence, 0 to 100 scale, 0 no effect, 100 complete control; for Kochia plant response rating (0 to 100 scale): 500 g ai/ha Preemergence, approx. 10 days
Method in brief: as §1

[5] = tested on: pigweed (Amaranthus retroflexus); assay: Test A preemergence, visual plant response rating; details: for Pigweed plant response rating: 125 g ai/ha, preemergence, 0 to 100 scale, 0 no effect, 100 complete control; for Pigweed plant response rating (0 to 100 scale): 500 g ai/ha Preemergence, approx. 10 days
Method in brief: as §1

[6] = tested on: ragweed (common ragweed, Ambrosia elatior); assay: Test A preemergence, visual plant response rating; details: for Ragweed plant response rating: 125 g ai/ha, preemergence, 0 to 100 scale, 0 no effect, 100 complete control; for Ragweed plant response rating (0 to 100 scale): 500 g ai/ha Preemergence, approx. 10 days
Method in brief: as §1

[7] = tested on: Italian ryegrass (Lolium multiflorum); assay: Test A postemergence, visual plant response rating; details: for Ryegrass, Italian plant response rating (0 to 100 scale): 500 g ai/ha, postemergence, 0 is no effect, 100 is complete control; for Ryegrass, Italian plant response rating: Postemergence, 125 g ai/ha, 0 to 100 scale (0 no effect, 100 complete control)
Method in brief: as §1

[8] = tested on: barnyardgrass (Echinochloa crus-galli); assay: Test A postemergence, visual plant response rating; details: for Barnyardgrass plant response rating (0 to 100 scale): 500 g ai/ha, postemergence, 0 is no effect, 100 is complete control; for Barnyardgrass plant response rating: Postemergence, 125 g ai/ha, 0 to 100 scale (0 no effect, 100 complete control)
Method in brief: as §1

[9] = tested on: blackgrass (Alopecurus myosuroides); assay: Test A postemergence, visual plant response rating; details: for Blackgrass plant response rating (0 to 100 scale): 500 g ai/ha, postemergence, 0 is no effect, 100 is complete control; for Blackgrass plant response rating: Postemergence, 125 g ai/ha, 0 to 100 scale (0 no effect, 100 complete control)
Method in brief: as §1

corn (Zea mays) = assay: Test A postemergence, visual plant response rating; details: for Corn plant response rating (0 to 100 scale): 500 g ai/ha, postemergence, 0 is no effect, 100 is complete control; for Corn plant response rating: Postemergence, 125 g ai/ha, 0 to 100 scale (0 no effect, 100 complete control)
Method in brief: as §1

[10] = tested on: foxtail, giant (giant foxtail, Setaria faberii); assay: Test A postemergence, visual plant response rating; details: for Foxtail, Giant plant response rating (0 to 100 scale): 500 g ai/ha, postemergence, 0 is no effect, 100 is complete control; for Foxtail, Giant plant response rating: Postemergence, 125 g ai/ha, 0 to 100 scale (0 no effect, 100 complete control)
Method in brief: as §1

[11] = tested on: galium (catchweed bedstraw, Galium aparine); assay: Test A postemergence, visual plant response rating; details: for Galium plant response rating (0 to 100 scale): 500 g ai/ha, postemergence, 0 is no effect, 100 is complete control; for Galium plant response rating: Postemergence, 125 g ai/ha, 0 to 100 scale (0 no effect, 100 complete control)
Method in brief: as §1

kochia (Kochia scoparia) [12] = assay: Test A postemergence, visual plant response rating; details: for Kochia plant response rating (0 to 100 scale): 500 g ai/ha, postemergence, 0 is no effect, 100 is complete control; for Kochia plant response rating: Postemergence, 125 g ai/ha, 0 to 100 scale (0 no effect, 100 complete control)
Method in brief: as §1

[13] = tested on: pigweed (Amaranthus retroflexus); assay: Test A postemergence, visual plant response rating; details: for Pigweed plant response rating (0 to 100 scale): 500 g ai/ha, postemergence, 0 is no effect, 100 is complete control; for Pigweed plant response rating: Postemergence, 125 g ai/ha, 0 to 100 scale (0 no effect, 100 complete control)
Method in brief: as §1

[14] = tested on: ragweed (common ragweed, Ambrosia elatior); assay: Test A postemergence, visual plant response rating; details: for Ragweed plant response rating (0 to 100 scale): 500 g ai/ha, postemergence, 0 is no effect, 100 is complete control; for Ragweed plant response rating: Postemergence, 125 g ai/ha, 0 to 100 scale (0 no effect, 100 complete control)
Method in brief: as §1

[15] = tested on: wheat (Triticum aestivum); assay: Test A postemergence, visual plant response rating; details: for Wheat plant response rating (0 to 100 scale): 500 g ai/ha, postemergence, 0 is no effect, 100 is complete control; for Wheat plant response rating: Postemergence, 125 g ai/ha, 0 to 100 scale (0 no effect, 100 complete control)
Method in brief: as §1

[16] = tested on: barnyardgrass (Echinochloa crus-galli); assay: Test B flooded paddy test, visual plant response rating; details: 250 g ai/ha, Flood, applied to paddy water, 2-leaf stage, evaluated after 13 to 15 days
Method in brief: (§2)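 Rice, umbrella sedge, ducksalad and barnyardgrass grown to 2-leaf stage; pots flooded 3 cm above soil and compound applied directly to paddy water, depth maintained.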

[17] = tested on: ducksalad (Heteranhera limosa); assay: as above; details: 250 g ai/ha, Flood, applied to paddy water, 2-leaf stage, evaluated after 13 to 15 days
Method in brief: as §2

rice (Oryza sativa) = assay: as above; details: 250 g ai/ha, Flood, applied to paddy water, 2-leaf stage, evaluated after 13 to 15 days
Method in brief: as §2

[18] = tested on: sedge, umbrella (small-flower umbrella sedge, Cyperus difformis); assay: as above; details: 250 g ai/ha, Flood, applied to paddy water, 2-leaf stage, evaluated after 13 to 15 days
Method in brief: as §2

| SMILES | Ryegrass, Italian plant response rating [1] | Ryegrass, Italian plant response rating (0 to 100 scale) [1] | Barnyardgrass plant response rating [2] | Barnyardgrass plant response rating (0 to 100 scale) [2] | Foxtail, Giant plant response rating [3] | Foxtail, Giant plant response rating (0 to 100 scale) [3] | Kochia plant response rating (kochia (Kochia scoparia) [4]) | Kochia plant response rating (0 to 100 scale) (kochia (Kochia scoparia) [4]) | Pigweed plant response rating [5] | Pigweed plant response rating (0 to 100 scale) [5] | Ragweed plant response rating [6] | Ragweed plant response rating (0 to 100 scale) [6] | Ryegrass, Italian plant response rating (0 to 100 scale) [7] | Ryegrass, Italian plant response rating [7] | Barnyardgrass plant response rating (0 to 100 scale) [8] | Barnyardgrass plant response rating [8] | Blackgrass plant response rating (0 to 100 scale) [9] | Blackgrass plant response rating [9] | Corn plant response rating (0 to 100 scale) (corn (Zea mays)) | Corn plant response rating (corn (Zea mays)) | further results |
| --- | --- | --- | --- | --- | --- | --- | --- | --- | --- | --- | --- | --- | --- | --- | --- | --- | --- | --- | --- | --- | --- |
| CON=C(c1c(O)c(C)nn(C)c1=O)c1ccc(F)c2ccccc12 [Compound 51] | 70 | 100 | 60 | 80 | 70 | 100 | 10 | 80 | 90 | 90 | 90 | 100 | 100 | 90 | 80 | 30 | 100 | 90 | 20 | 10 | Foxtail, Giant plant response rating (0 to 100 scale) [10]: 90; Foxtail, Giant plant response rating [10]: 50; Galium plant response rating (0 to 100 scale) [11]: 100; Galium plant response rating [11]: 100; Kochia plant response rating (0 to 100 scale) (kochia (Kochia scoparia) [12]): 90; Kochia plant response rating (kochia (Kochia scoparia) [12]): 80; Pigweed plant response rating (0 to 100 scale) [13]: 90; Pigweed plant response rating [13]: 90; Ragweed plant response rating (0 to 100 scale) [14]: 100; Ragweed plant response rating [14]: 80; Wheat plant response rating (0 to 100 scale) [15]: 90; Wheat plant response rating [15]: 70; Plant response rating, Barnyardgrass (0 to 100 scale, 0 is no effect, 100 is complete control) [16]: 15; Plant response rating, Ducksalad (0 to 100 scale, 0 is no effect, 100 is complete control) [17]: 75; Plant response rating, Rice (0 to 100 scale, 0 is no effect, 100 is complete control) (rice (Oryza sativa)): 15; Plant response rating, Sedge, Umbrella (0 to 100 scale, 0 is no effect, 100 is complete control) [18]: 65 |
| CO/N=C(\c1cscc1C)c1c(O)c(C)nn(C)c1=O [Compound 52] | 0 | 40 | 0 | 10 | 0 | 10 | 0 | 20 | 60 | 80 | 0 | 30 | 80 | 10 | 30 | 10 | 30 | 0 | 0 | 0 | Foxtail, Giant plant response rating (0 to 100 scale) [10]: 20; Foxtail, Giant plant response rating [10]: 10; Galium plant response rating (0 to 100 scale) [11]: 80; Galium plant response rating [11]: 70; Kochia plant response rating (0 to 100 scale) (kochia (Kochia scoparia) [12]): 60; Kochia plant response rating (kochia (Kochia scoparia) [12]): 20; Pigweed plant response rating (0 to 100 scale) [13]: 90; Pigweed plant response rating [13]: 70; Ragweed plant response rating (0 to 100 scale) [14]: 90; Ragweed plant response rating [14]: 60; Wheat plant response rating (0 to 100 scale) [15]: 0; Wheat plant response rating [15]: 0; Plant response rating, Barnyardgrass (0 to 100 scale, 0 is no effect, 100 is complete control) [16]: 0; Plant response rating, Ducksalad (0 to 100 scale, 0 is no effect, 100 is complete control) [17]: 0; Plant response rating, Rice (0 to 100 scale, 0 is no effect, 100 is complete control) (rice (Oryza sativa)): 0; Plant response rating, Sedge, Umbrella (0 to 100 scale, 0 is no effect, 100 is complete control) [18]: 0 |
| CO/N=C(\c1ccc(C)o1)c1c(O)c(C)nn(C)c1=O [Compound 53] | 0 | 0 | 0 | 0 | 0 | 0 | 0 | 0 | 0 | 0 | 0 | 0 | 90 | 20 | 70 | 10 | 40 | 10 | 30 | 0 | Foxtail, Giant plant response rating (0 to 100 scale) [10]: 90; Foxtail, Giant plant response rating [10]: 10; Galium plant response rating (0 to 100 scale) [11]: 0; Galium plant response rating [11]: 0; Kochia plant response rating (0 to 100 scale) (kochia (Kochia scoparia) [12]): 0; Kochia plant response rating (kochia (Kochia scoparia) [12]): 0; Pigweed plant response rating (0 to 100 scale) [13]: 0; Pigweed plant response rating [13]: 0; Ragweed plant response rating (0 to 100 scale) [14]: 0; Ragweed plant response rating [14]: 0; Wheat plant response rating (0 to 100 scale) [15]: 0; Wheat plant response rating [15]: 0; Plant response rating, Barnyardgrass (0 to 100 scale, 0 is no effect, 100 is complete control) [16]: 0; Plant response rating, Ducksalad (0 to 100 scale, 0 is no effect, 100 is complete control) [17]: 0; Plant response rating, Rice (0 to 100 scale, 0 is no effect, 100 is complete control) (rice (Oryza sativa)): 0; Plant response rating, Sedge, Umbrella (0 to 100 scale, 0 is no effect, 100 is complete control) [18]: 0 |
